Data reported in ChEMBL document CHEMBL1150706, “Novel chromones from Spathelia sorbifolia” (1987).
Converted amounts (≈) assume the structure as drawn.

Assay: Cytotoxicity against mouse 9PS cells
Type: functional
Settings: read-out: ED50 (the source's name)

SMILES | EC50 [mg/L]
Cc1cc(=O)c2c(O)c3c(c(C(O)C(O)C(C)(C)O)c2o1)OC(C)(C)C=C3 (stereo not drawn) | 0.5 (≈ 1.33 µM)
COc1c(/C=C/C(C)(C)O)c2c(c3oc(C)cc(=O)c13)C=CC(C)(C)O2 | 0.3 (≈ 0.842 µM)
Cc1cc(=O)c2c(O)c3c(c(CC(O)C(C)(C)O)c2o1)OC(C)(C)C=C3 (stereo not drawn) [SPATHELIABISCHROMEN] | 3 (≈ 8.32 µM)
